Data taken from ChEMBL document CHEMBL5604061, “ASAP - WNV NS2B-NS3 protease fluorescence dose response” (2024).
Where “and” joins values, the source holds several entries; their conditions need not be identical. Equal values may be shown once.

These molecules were tested against T1, NS3 (West Nile virus, UniProt K4FQI5) (assay: Functional biochemical assay to identify treatments for viral infectious disease that targets West Nile NS2B-NS3 protease. Utilizing a direct enzyme activity measurement method, reading the fluorescence intensity is used to characterize the relative potency of inhibitors as IC50.).
T1 sequence (K4FQI5 whole entry): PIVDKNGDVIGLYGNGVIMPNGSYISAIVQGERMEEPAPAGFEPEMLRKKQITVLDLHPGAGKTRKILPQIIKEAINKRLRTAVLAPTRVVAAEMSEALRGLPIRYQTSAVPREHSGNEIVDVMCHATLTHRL
Set-up: species or system NY-99

Compound	IC50
O=C(NCC(F)F)[C@H](Nc1ccc2c(c1)CNC2)c1cc(Cl)cc(C2CC2)c1	129 nM (2×) and 840 nM
O=C(NC[C@H]1CCCO1)[C@H](Nc1ccc2c(c1)CNC2)c1cc(Cl)cc2[nH]ncc12	1.16 µM
Cc1cc(C(=O)Nc2ccc3c(c2)CNC3)c2cn[nH]c2c1	9.64 µM
N#Cc1cc(Cl)cc(C(=O)Nc2ccc3c(c2)CNC3)c1	54.9 µM
CC(C)NC(=O)[C@H](Nc1ccc2c(c1)CNC2)c1cc(Cl)cc2[nH]ncc12	0.386 µM and 0.292 µM and 0.336 µM
Cn1cc2cc(Cl)cc(C(=O)Nc3ccc4c(c3)CNC4)c2n1	> 24.9 µM
Cc1ccc(S(=O)(=O)CNC(=O)[C@H](Nc2ccc3c(c2)CNC3)c2cc(Cl)cc3[nH]ncc23)cc1	11.7 µM
N#CCCNC(=O)[C@H](Nc1ccc2c(c1)CNC2)c1cc(Cl)cc(C2CC2)c1	0.43 µM
O=C(Nc1ccc2c(c1)CNC2)c1cc(Br)cc2[nH]c([C@H]3CCOC3)nc12	92.3 µM
CNC(=O)[C@H](Nc1ccc2c(c1)CNC2)c1cc(Cl)cc(C2CC2)c1	0.447 µM
O=C(Nc1ccc2c(c1)CNC2)c1cc(Cl)ccc1SC1CCCC1	> 99.5 µM
O=C(Nc1ccc2c(c1)CNC2)c1cc(Br)cc2[nH]c(-c3ccccc3)nc12	11.4 µM
N#C[C@H](Nc1ccc2c(c1)CNC2)c1cc(Cl)cc(C2CC2)c1	59 µM
N#Cc1cc(Cl)cc([C@H](C#N)Nc2ccc3c(c2)CNC3)c1	98.5 µM
Clc1cc(CNc2ccc3c(c2)CNC3)c2cn[nH]c2c1	46.1 µM
O=C(Nc1ccc2c(c1)CNC2)c1cc(Br)cc2[nH]c(C3CCOCC3)nc12	> 99.5 µM
O=C(NC1CCOCC1)[C@H](Nc1ccc2c(c1)CNC2)c1cc(Cl)cc(C2CC2)c1	0.186 µM
Cn1cc(CNC(=O)[C@H](Nc2ccc3c(c2)CNC3)c2cc(Cl)cc(C3CC3)c2)cn1	1.07 µM
CCc1cc(Cl)cc(C(=O)Nc2ccc3c(c2)CNC3)c1	> 99.5 µM
Cc1ccc2cc(Cl)cc(C(=O)Nc3ccc4c(c3)CNC4)c2n1	> 99.5 µM
Cn1cc(CCc2nc3c(C(=O)Nc4ccc5c(c4)CNC5)cc(Cl)cc3[nH]2)cn1	44.5 µM
O=C(Nc1cnc2c(c1)CNCC2)c1cc(Cl)cc2[nH]ncc12	26.5 µM
O=C(Nc1ccc2c(c1)CNC2)c1cc(F)cc2[nH]ncc12	1.42 µM
O=C(NC[C@H]1CCCO1)[C@H](Nc1ccc2c(c1)CNC2)c1cc(Cl)cc(C2CC2)c1	0.498 µM
O=C(NCC1CCOCC1)[C@H](Nc1ccc2c(c1)CNC2)c1cc(Cl)cc2[nH]ncc12	2.28 µM
Cc1c(C(=O)Nc2cc([C@H]3CCOC3)ccn2)cc(C2CC2)n1C	2.68 µM

Compound	IC50
CC(C)NC(=O)[C@H](Nc1ccc2c(c1)CNC2)c1cc(Cl)cc2[nH]c(-c3ccccc3)nc12	0.28 µM and 0.286 µM and 0.152 µM and 0.255 µM
O=C(Nc1cc2c(cc1Br)CNC2)c1cc(Cl)cc2[nH]ncc12	2.73 µM
O=C(Nc1ccc2c(c1)CNC2)c1cccc2[nH]c(C(F)(F)F)cc12	2.51 µM
O=C(Nc1ccc2c(c1)CNC2)c1cc(Cl)cc2[nH]c(-c3ccnn3C3CC3)nc12	18.6 µM
CNC(=O)[C@H](Nc1cc(Cl)cc2[nH]ncc12)c1ccc2c(c1)CNC2	88.4 µM
Nc1noc2cccc(C(=O)Nc3ccc4c(c3)CNC4)c12	76.8 µM
C=CC[C@H]1NCc2cc(NC(=O)c3cccc4c3CC(=O)N4)ccc21	8.03 µM
O=C(Nc1ccc2c(c1)CNC2)c1cc(Cl)cc2[nH]c(-c3nc4c(s3)CCC4)nc12	40.3 µM
O=C(Nc1ccc2c(c1)CN[C@H]2C[C@H](O)CO)c1cc(F)cc2[nH]ncc12	2.41 µM
O=C(NCCCn1ccnc1)[C@H](Nc1ccc2c(c1)CNC2)c1cc(Cl)cc(C2CC2)c1	0.839 µM
O=C(Nc1ccc2c(c1)CNC2)c1cc(Cl)ccc1-n1cncn1	42.7 µM
O=C(Nc1ccc2c(c1)CNC2)c1cc(Cl)cc2[nH]c(-c3ccc(F)cc3O)nc12	> 99.5 µM
O=C(Nc1ccc2c(c1)CNC2)c1cc(F)cc2[nH]cnc12	13.5 µM
O=C(Nc1ccc2c(c1)CNC2)c1cccc2ccncc12	11.4 µM
O=C(NCC(F)F)[C@H](Nc1ccc2c(c1)CNC2)c1cc(F)cc2[nH]ccc12	0.768 µM
Cn1cc2c(C(=O)Nc3ccc4c(c3)CNC4)cc(F)cc2n1	7.38 µM
O=C(Nc1ccc2c(c1)CNC2)c1cc(Cl)cc2[nH]c(COc3ccccn3)nc12	> 99.5 µM
O=C(Nc1ccc2c(c1)CNC2)c1cc(Br)cc2[nH]c([C@H]3CCCO3)nc12	> 99.5 µM
C=CC[C@H]1NCc2cc(NC(=O)c3cc(Cl)cc4[nH]ncc34)ccc21	14.1 µM
CCc1ccc(-c2nc3c(C(=O)Nc4ccc5c(c4)CNC5)cc(Cl)cc3[nH]2)cc1	32 µM
O=C(NCCC1CC1)[C@H](Nc1ccc2c(c1)CNC2)c1cc(Cl)cc(C2CC2)c1	0.698 µM
CC(C)(C)c1nc2c(C(=O)Nc3ccc4c(c3)CNC4)cc(Br)cc2[nH]1	> 99.5 µM
CCSc1ccc(Cl)cc1C(=O)Nc1ccc2c(c1)CNC2	81.6 µM
CNC(=O)c1cccc(C(=O)Nc2ccc3c(c2)CNC3)c1	36.8 µM
CCOCC1(c2nc3c(C(=O)Nc4ccc5c(c4)CNC5)cc(Cl)cc3[nH]2)CC1	> 99.5 µM
O=C(Nc1ccc2c(c1)CNC2)c1cc(Cl)cc2cc[nH]c12	16.3 µM

Compound	IC50
C=CC[C@H]1NCc2cc(NC(=O)c3cc(F)cc4[nH]ncc34)ccc21	4.14 µM
O=C(Nc1ccc2c(c1)CNC2)c1cc(Cl)cc2[nH]c(-c3cnccc3O)nc12	> 99.5 µM
O=C(Nc1cc(Br)c2c(c1)CNC2)c1cc(F)cc2[nH]ncc12	0.915 µM and 0.957 µM
O=C(Nc1ccc2c(c1)CNC2)c1cccc2[nH]ccc12	8.63 µM
O=C(NCC(F)F)[C@H](Nc1ccc2c(c1)CNC2)c1cc(F)cc2[nH]ncc12	0.247 µM
O=C1Cc2c(cc(F)cc2C(=O)Nc2ccc3c(c2)CNC3)N1	0.537 µM and 0.576 µM
C=CC[C@H]1NCc2cc(N[C@H](C(=O)NC(C)C)c3cc(Cl)cc4[nH]ncc34)ccc21	0.886 µM
CC(C)NC(=O)[C@H](Nc1ccc2c(c1)CNC2)c1cccc2cn[nH]c12	14.1 µM
CCOC(=O)c1ncoc1CNC(=O)[C@H](Nc1ccc2c(c1)CNC2)c1cc(Cl)cc(C2CC2)c1	3.04 µM
CC1=C(c2cc(NC(=O)c3cc(Cl)cc4[nH]ncc34)cc3c2CNC3)CCC1=O	12.9 µM
O=C(Nc1ccc2c(c1)CNC2)c1cccc2sccc12	13.8 µM
O=C(Nc1ccc2c(c1)CNC2)c1cncc2[nH]ncc12	20.8 µM
Cn1c(=O)[nH]c2c(C(=O)Nc3ccc4c(c3)CNC4)cc(Br)cc21	14.4 µM
O=C(NCC(F)F)[C@H](Nc1ccc2c(c1)CNC2)c1cc(Cl)cc2[nH]ncc12	2.64 µM
O=C(Nc1cc2c(c(C3=CC[C@H](O)CC3)c1)CNC2)c1cc(Cl)cc2[nH]ncc12	3.82 µM
O=C(Nc1ccc2c(c1)CNC2)c1cc(Cl)cc2[nH]c(-c3cc(C4CC4)[nH]n3)nc12	10.1 µM
O=C(Nc1ccc2c(c1)CNC2)c1cc(F)cc2c1CCC2	4.41 µM
O=C(Nc1ccc2c(c1)CNC2)c1cc(Cl)cc2[nH]c(CCc3cccnc3)nc12	87.1 µM
CNC(=O)[C@H](Nc1ccc2c(c1)CNC2)c1cc(Cl)cc2c1OCC2	3.8 µM
O=C(Nc1ccc2c(c1)CNC2)c1cc(Cl)cc2[nH]c(-c3ncnn3C3CC3)nc12	87.2 µM
O=C(Nc1ccc2c(c1)CNC2)c1cc(Cl)cc(C(F)(F)F)n1	40.1 µM
C=CC[C@H]1NCc2cc(NC(=O)c3cc(F)cc4c3CC(=O)N4)ccc21	1.92 µM
O=C(Nc1ccc2c(c1)CNC2)c1cccc2nc(O)ccc12	6.71 µM
CC(C)CNC(=O)[C@H](Nc1ccc2c(c1)CNC2)c1cc(Cl)cc2[nH]ncc12	0.643 µM
O=C(Nc1ccc2c(c1)CNC2)c1cc(F)cc2c1CCNC2	1.36 µM
COCc1cc(Cl)cc(C(=O)Nc2ccc3c(c2)CNC3)c1	73.2 µM

Compound	IC50
CCc1cnccc1-c1nc2c(C(=O)Nc3ccc4c(c3)CNC4)cc(Cl)cc2[nH]1	> 99.5 µM
O=C(Nc1ccc2c(c1)CNC2)c1cc(Br)cc2c1nc1n2CCCC1	31.4 µM
CN(C)C(=O)CCCc1nc2c(C(=O)Nc3ccc4c(c3)CNC4)cc(Cl)cc2[nH]1	> 99.5 µM
CSCCNC(=O)[C@H](Nc1ccc2c(c1)CNC2)c1cc(Cl)cc(C2CC2)c1	0.514 µM
O=C(Nc1ccc2c(c1)CNC2)c1cc(Cl)cc(N2CCCC2=O)c1	24.8 µM
COc1cc(Cl)cc(C(=O)Nc2ccc3c(c2)CNC3)c1	40.7 µM
O=C(Nc1ccc2c(c1)CNC2)c1cc(F)cc2nn(-c3ccccn3)nc12	7.11 µM
O=C1Cc2cc(C(=O)Nc3ccc4c(c3)CNC4)ccc2N1	16.7 µM
CCCNC(=O)[C@H](Nc1ccc2c(c1)CNC2)c1cc(Cl)cc2[nH]ncc12	0.356 µM
O=C(NCc1cccnc1)[C@H](Nc1ccc2c(c1)CNC2)c1cc(Cl)cc2[nH]ncc12	1.37 µM
O=C1Cc2c(cccc2C(=O)Nc2ccc3c(c2)CNCCC3)N1	2.15 µM
O=C(Nc1ccc2c(c1)CNC2)c1cc(F)cc2[nH]c(-c3ccccc3)nc12	16 µM
O=C(Nc1ccc2c(c1)CNC2)c1cc(Cl)cc2[nH]c(C3(n4ccnn4)CC3)nc12	> 99.5 µM
O=C(Nc1ccc2c(c1)CNC2)c1cc(Cl)cc2nn(-c3ccccc3)nc12	21.5 µM
N#Cc1cccc(-c2nc3c(C(=O)Nc4ccc5c(c4)CNC5)cc(Cl)cc3[nH]2)c1	7.57 µM
O=C(Nc1ccc2c(c1)CNC2)c1cccc2cn[nH]c12	9.75 µM
O=C(Nc1cc2c(cc1Br)CNC2)c1cc(F)cc2[nH]ncc12	1.25 µM
C#Cc1cc(Cl)cc(C(=O)Nc2ccc3c(c2)CNC3)c1	58.6 µM
O=C(Nc1ccc2c(c1)CNC2)c1cc(F)cc(-c2cnc(C3CC3)s2)c1	1.99 µM
O=C(Nc1ccc2c(c1)CNC2)c1cc(Cl)cc2ccccc12	14.7 µM
O=C(Nc1ccc2c(c1)CNC2)c1cc(Cl)cc2c1NCCC2	> 99.5 µM
Nc1nc2c(Br)cc(C(=O)Nc3ccc4c(c3)CNC4)cc2s1	> 99.5 µM
O=C(Nc1ccc2c(c1)CNC2)c1cc(Cl)cc2[nH]c(-c3cnc(C4CC4)o3)nc12	22.9 µM
O=C(Nc1ccc2c(c1)CNC2)c1cc(Cl)cc(N2CCCC2)c1	42.8 µM
CC(=O)Nc1cccc(C(=O)Nc2ccc3c(c2)CNC3)c1	30.6 µM
